Source: patent publication US9242977B2, “Trk-inhibiting compound” (ONO PHARMACEUTICAL CO., LTD., priority 2012, dated 2016)

Key:
TrkA [1] = molecular target: T1, TrkA (Homo sapiens (Human), UniProt P04629); assay: Measurement of TrkA enzyme-inhibiting activity (LanthaScreen TR-FRET kinase assay); type: biochemical; conditions: final ATP 150 μM, read-out: TrkA inhibitory activity (IC50; μM)
Procedure: TrkA-inhibiting activity was measured according to the following method using LanthaScreen™ kinase assay reagents (Invitrogen; Fluorescein-Poly GT, LanthaScreen™ Tb-PY20 and TR-FRET Dilution Buffer), TrkA (Invitrogen), ATP (Sigma-Aldrich), a kinase reaction buffer (50 mM HEPES buffer (Sigma-Aldrich) (pH 7.5) containing 0.01% Brij35 (Sigma-Aldrich), 10 mM MgCl2 (Sigma-Aldrich) and 1 mM EGTA (Sigma-Aldrich)) and 0.5 M EDTA (pH 8.0) (Invitrogen).
The present compound was dissolved in dimethylsulfoxide (hereinafter abbreviated as DMSO) to prepare a 10 mM solution. The test compound at 10 mM was distributed into a 96-well plate and serially diluted with DMSO with the geometrical ratio of 3. The serial dilutions (DMSO solutions) were diluted with the kinase reaction buffer to 20-fold to prepare solutions of the present compound with 5-times concentrations (DMSO concentration: 5%). TrkA was diluted with the kinase reaction buffer to prepare a solution at 38.5 ng/mL (enzyme solution). Adenosine triphosphate (hereinafter abbreviated as ATP) was preliminarily diluted in distilled water to prepare a 10 mM solution which was then divided into containers and stored at −20° C. The 10 mM ATP solution and Fluorescein-Poly GT were diluted in the kinase reaction buffer to prepare a solution containing […] of ATP and 500 nM of Fluorescein-Poly GT (ATP-substrate solution). EDTA (0.5 M; pH 8.0) and LanthaScreen™ Tb-PY20 were diluted in the TR-FRET Dilution Buffer to prepare a solution containing 20 mM of EDTA and 4 nM of LanthaScreen™ Tb-PY20 (detection buffer).
The solutions of the present compound (5 μL/well) and the enzyme solution (10 μL/well) were added to a 96-half well assay plate and the plate was shaken at room temperature for 10 minutes on a plate shaker (IKA™ MTS2/4 digital microplate, IKA Japan K.K.). As a control and a blank, the kinase reaction buffer containing 5% DMSO (5 μL/well) was added in place of the solution of the present compound. As a blank, the kinase reaction buffer (10 μL/well) was added in the place of the enzyme solution. The ATP-substrate solution (10 μL/well) was then added to the plate to initiate kinase reaction and the plate was shaken in the dark at room temperature for 1 hour on the plate shaker (final concentration of TrkA: 15.4 ng/mL, final concentration of the substrate: 200 nM and final concentration of ATP: 150 μM). Kinase reaction was terminated by adding the detection buffer (25 μL/well) to the plate and the plate was shaken in the dark at room temperature for 30 minutes on the plate shaker. On an Analyst GT (Molecular Devices Japan, K.K.) the wells were irradiated with excitation light at 340 nm and the fluorescence intensities at 520 nm and 495 nm were measured. The fluorescence intensity at 520 nm for each well was divided by the fluorescence intensity at 495 nm to calculate the time resolved fluorescence resonance energy transfer (TR-FRET) ratio.
The inhibition rate (%) of the present compound was calculated according to the following Equation 1: Inhibition rate (%)={1−(AX−AB)/(AC−AB)×100 Equation 1
wherein AX: the TR-FRET ratio when the present compound is added;
AB: the TR-FRET of the blank; and
AC: the TR-FRET of the control.
The value for 50% inhibition by the present compound (IC50 value) was calculated from the inhibition curve based on the inhibition rate of the present compound at respective concentrations.

TrkA [2] = molecular target: T1, TrkA; assay: TrkA kinase-inhibiting activity using human TrkA expressing cells (CellSenser TrkA-NFAT-bla CHO-K1, NGF-stimulated reporter assay); type: cell-based; conditions: CHO-K1 cells expressing human TrkA and NFAT-bla; NGF 50 ng/ml; read-out: TrkA inhibitory activity (IC50; μM)
Procedure: TrkA kinase-inhibiting activity in cell systems was measured using CHO-K1 cells expressing human TrkA and NFAT-bla (CellSenser™ TrkA-NFAT-bla CHO-K1 cells, Invitrogen).
On the day before the assay, CellSenser™ TrkA-NFAT-bla CHO-K1 cells were suspended in an assay medium (Opti-MEM1 Reduced Serum Medium (Invitrogen) containing 0.5% dialysed fetal bovine serum (Invitrogen), 0.1 mM nonessential amino acids (Invitrogen), 1 mM sodium pyruvate (Invitrogen) and antibiotics (100 U/mL penicillin and 100 μg/mL streptomycin (Invitrogen)) and plated at a density of 2.4×10^4 cells/40 μL/well in a 96-well clear bottom plate (Corning, Catalogue No.: 3882). In some wells were added only the assay medium at 40 μL/well (Cell-free). On the day of the assay, 10 mM of the present compound (DMSO solution) was distributed in a 96-well plate (Costar, Catalogue No.: 3363) and serially diluted with DMSO with the geometrical ratio of 3. The serial dilutions were diluted with the assay medium to 100-fold to prepare a solution of the present compound with a 10-times concentration (DMSO concentration: 1%). To the plate where cells were plated was added the present compound at 5 μL/well and the plate was incubated in a CO2 incubator with 5% CO2, 95% Air at 37° C. for 30 minutes. For a control and a blank, the assay medium containing 1% DMSO was added at 5 μL/well in place of the solution of the present compound. Subsequently the assay medium containing NGF (Mouse 2.5s, Natural, Invitrogen) was added to the plate at 5 µL/well (final concentration of NGF: 50 ng/ml) and the plate was incubated in a CO2 incubator with 5% CO2, 95% Air at 37° C. for 5 hours. For a group of blanks, the assay medium was added in place of NGF at 5 μL/well. A reporter assay detection reagent (10 μL/well) was added to the plate and the plate was then incubated in the dark at room temperature for 120 minutes. The reporter assay detection reagent was prepared from LiveBLAzer™-FRET B/G Loading Kit (Invitrogen). On an Analyst GT (Molecular Devices Japan, K.K.) the wells were irradiated with excitation light at 405 nm and the fluorescence intensities at 460 nm and 530 nm were measured. The time resolved fluorescence resonance energy transfer (TR-FRET) ratio of each well was calculated according to the following Equation 2. TR-FRET Ratio=(A460X−A460F)/(A530X−A530F) Equation 2
wherein A460X: the fluorescence intensity at 460 nm of the present compound, control or blank;
A460F: the fluorescence intensity at 460 nm of the Cell-free;
A530X: the fluorescence intensity at 530 nm of the present compound, control or blank; and
A530F: the fluorescence intensity at 530 nm of the Cell-free. […]
The IC50 value of the present compound was calculated from the inhibition curve based on the inhibition rate of the present compound at respective concentrations.

T1 sequence (P04629 33-796): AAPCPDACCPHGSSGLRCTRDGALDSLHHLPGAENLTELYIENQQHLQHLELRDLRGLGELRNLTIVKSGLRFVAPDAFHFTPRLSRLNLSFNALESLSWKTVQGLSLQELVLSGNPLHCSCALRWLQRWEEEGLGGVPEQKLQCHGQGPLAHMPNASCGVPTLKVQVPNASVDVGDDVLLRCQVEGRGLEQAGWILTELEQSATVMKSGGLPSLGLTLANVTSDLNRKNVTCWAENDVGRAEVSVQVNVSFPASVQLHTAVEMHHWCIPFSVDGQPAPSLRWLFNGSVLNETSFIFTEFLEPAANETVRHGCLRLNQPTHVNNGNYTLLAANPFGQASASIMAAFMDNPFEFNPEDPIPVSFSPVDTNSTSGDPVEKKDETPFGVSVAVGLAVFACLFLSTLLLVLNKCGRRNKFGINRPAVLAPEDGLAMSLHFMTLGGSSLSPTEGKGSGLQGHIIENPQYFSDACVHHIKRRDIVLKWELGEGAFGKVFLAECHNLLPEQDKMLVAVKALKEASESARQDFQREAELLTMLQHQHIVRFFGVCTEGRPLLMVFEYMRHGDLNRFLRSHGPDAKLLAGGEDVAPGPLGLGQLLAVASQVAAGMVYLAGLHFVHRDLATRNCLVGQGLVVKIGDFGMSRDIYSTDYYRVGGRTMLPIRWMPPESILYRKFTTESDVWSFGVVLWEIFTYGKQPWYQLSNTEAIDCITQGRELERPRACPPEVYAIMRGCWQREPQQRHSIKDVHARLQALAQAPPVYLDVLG

Row | Compound | IC50 (TrkA [1]) | IC50 (TrkA [2])
1 | CC(C)(C)c1cc(NC(=O)Nc2cnc(Oc3ccc(-c4cnc(N5CCCC5=O)s4)cc3)nc2)n(-c2ccc3c(c2)CCO3)n1 [Example 66-19, 1-[1-(2,3-dihydro-1-benzofuran-5-yl)-3-(2-methyl-2-propanyl)-1H-pyrazol-5-yl]-3-(2-{4-[2-(2-oxo-1-pyrrolidinyl)-1,3-thiazol-5-yl]phenoxy}-5-pyrimidinyl)urea] | 0.02 µM | 0.004 µM
2 | O=C(Nc1cnc(Oc2ccc(-c3cnc(N4CCCC4=O)s3)cc2)nc1)Nc1cc(C(F)(F)F)cnc1-c1ccc(C(F)(F)F)nc1 [Example 50, 1-[5,6′-bis(trifluoromethyl)-2,3′-bipyridin-3-yl]-3-(2-{4-[2-(2-oxo-1-pyrrolidinyl)-1,3-thiazol-5-yl]phenoxy}-5-pyrimidinyl)urea] | 0.04 µM | 0.012 µM
3 | Cc1ccc(-n2nc(C(C)(C)C)cc2NC(=O)Nc2cnc(Oc3ccc(-c4cnc(N5CCCC5=O)s4)cc3)nc2)cc1C [Example 65-1, 1-[1-(3,4-dimethylphenyl)-3-(2-methyl-2-propanyl)-1H-pyrazol-5-yl]-3-(2-{4-[2-(2-oxo-1-pyrrolidinyl)-1,3-thiazol-5-yl]phenoxy}-5-pyrimidinyl)urea] | 0.08 µM | 0.002 µM
4 | O=C(Nc1cnc(Oc2ccc(-c3cnc(N4CCCC4=O)s3)cc2)nc1)Nc1cc(C2CC2)nn1-c1ccccc1 [Example 72-7, 1-(3-cyclopropyl-1-phenyl-1H-pyrazol-5-yl)-3-(2-{4-[2-(2-oxo-1-pyrrolidinyl)-1,3-thiazol-5-yl]phenoxy}-5-pyrimidinyl)urea] | 0.03 µM | 0.033 µM
5 | CC(C)(C)c1cc(NC(=O)Nc2cnc(Oc3ccc(-c4cnc(N5CCCC5=O)s4)cc3)nc2)n(C2CCOCC2)n1 [Example 80-2, 1-[3-(2-methyl-2-propanyl)-1-(tetrahydro-2 H-pyran-4-yl)-1H-pyrazol-5-yl]-3-(2-{4-[2-(2-oxo-1-pyrrolidinyl)-1,3-thiazol-5-yl]phenoxy}-5-pyrimidinyl)urea] | 0.07 µM | –
6 | Cc1ccccc1-n1nc(C(F)(F)F)cc1NC(=O)Nc1cnc(Oc2ccc(-c3cnc(N4CCCC4=O)s3)cc2)nc1 [Example 72-1, 1-[1-(2-methylphenyl)-3-(trifluoromethyl)-1H-pyrazol-5-yl]-3-(2-{4-[2-(2-oxo-1-pyrrolidinyl)-1,3-thiazol-5-yl]phenoxy}-5-pyrimidinyl)urea] | 0.05 µM | 0.011 µM
7 | CC(C)c1ncc(C(F)(F)F)cc1NC(=O)Nc1cnc(Oc2ccc(-c3cnc(N4CCCC4=O)s3)cc2)nc1 [Example 84-41, 1-[2-isopropyl-5-(trifluoromethyl)-3-pyridinyl]-3-(2-{4-[2-(2-oxo-1-pyrrolidinyl)-1,3-thiazol-5-yl]phenoxy}-5-pyrimidinyl)urea] | 0.09 µM | –
8 | Cc1ccccc1-n1nc(C(C)(F)F)cc1NC(=O)Nc1cnc(Oc2ccc(-c3cnc(N4CCCC4=O)s3)cc2)nc1 [Example 72-3, 1-[3-(1,1-difluoroethyl)-1-(2-methylphenyl)-1H-pyrazol-5-yl]-3-(2-{4-[2-(2-oxo-1-pyrrolidinyl)-1,3-thiazol-5-yl]phenoxy}-5-pyrimidinyl)urea] | 0.06 µM | 0.018 µM
9 | O=C(Nc1cnc(Oc2ccc(-c3cnc(N4CCCCC4=O)s3)cc2)nc1)Nc1cc(C(F)(F)F)cnc1-c1ccc(C(F)(F)F)nc1 [Example 9, 1-[5,6′-bis(trifluoromethyl)-2,3′-bipyridin-3-yl]-3-(2-{4-[2-(2-oxo-1-piperidinyl)-1,3-thiazol-5-yl]phenoxy}-5-pyrimidinyl)urea] | 0.16 µM | 0.093 µM
10 | Cn1ncc2cc(-n3nc(C(C)(C)C)cc3NC(=O)Nc3cnc(Oc4ccc(-c5cnc(N6CCCC6=O)s5)cc4)nc3)ccc21 [Example 71, 1-[1-(1-methyl-1H-indazol-5-yl)-3-(2-methyl-2-propanyl)-1H-pyrazol-5-yl]-3-(2-{4-[2-(2-oxo-1-pyrrolidinyl)-1,3-thiazol-5-yl]phenoxy}-5-pyrimidinyl)urea] | 0.03 µM | 0.002 µM
